Patent US20190388349A1, “NON-TOXIC VEHICLE TO SOLUBILIZE, DELIVER, AND OBTAIN BIOLOGICAL ACTIVITY OF STEROID HORMONES AT CELL, TISSUE, AND ORGAN TARGETS, IN VITRO AND IN VIVO” (Government of the United States as Represented by the …, priority 2017, published 2019)

What was measured:
293T cells = experiment: Biological function (phenotype, mobile cells) in 293T cells; format: cell-based, human; details: for mobile cells / mobile elements / processes (photograph): vehicle PEG 300 with LIPOFECTAMINE, 25 μM β-AED, 5 nM E2
Description: A non-toxic vehicle for administration of androstene hormones according to embodiments of the present invention was prepared from a first solution and a second solution. The first solution, comprising liposomal formulation, was placed in PEG 300 to a concentration of 5% and heated in a sonicating water bath to about 45° C. The second solution, comprising a selected hormone (one or more of 5Δ-androsten-3β, 17α-diol, 5Δ-androsten-3β, 17β-diol, or 5Δ-androsten-3β,7β,17β-triol), was placed in PEG 300 and heated in a sonicating water bath to about 45° C. The first and second solutions were then combine and stirred until dissolved.
Biological function was tested in 293T cells, which is a human embryonic cell line transformed with Large T antigen […] SV40. This hypotriploid (polyploid) cell line is particularly useful in such transformation studies and has very distinct phenotypes when grown. All androstene hormone treatment applications were at concentrations of 25 μM.

[1] = system: MDA-MB-231 breast cancer cell; experiment: Cell death in MDA-MB-231 breast cancer cell cultures; format: cell-based; details: 25 μM β-AED, 25 μM β-AET, 5 nM E2; PEG 300 with LIPOFECTAMINE vehicle
Description: (§1) Hormone dependent, noninvasive, epithelial phenotype (ER/PR positive MCF-7 breast cancer cells) and hormone independent, invasive, mesenchymal phenotype (ER/PR negative MDA-MB-231 breast cancer cell) cell suspensions were acquired and prepared in complete medium (DMEM/F12, 10% FBS, 1% penicillin/streptomycin (Gibco)). Cellular concentration was adjusted to 2×10^5 cells/mL.
(§2) Androstene hormone solutions according to embodiments of the present invention were prepared from a first solution and a second solution. For the first solution, 3.0 mg of β-AED or β-AET was added to warm PEG 300 to prepare 50 mM stock. For the second solution, 10 μL of LIPOFECTAMINE (3:1 DOSPA: DOPE) was introduced to 100 μL of PEG 300, mixed, and incubated in a water bath at 42° C. for 30 min. The first and second solutions were then mixed in a sonicator water bath at 42° C. for 1 hr. The final concentration was 50 mM β-AED (or AET, as used).
(§3) A β-estradiol solution was also prepared by adding 2.7 mg of β-estradiol to 200 μL warmed PEG 300 with LIPOFECTAMINE and then further diluted 1:1000 with PEG-300. The final concentration was 50 μM.
A diluted β-AED (or β-AET) solution was prepared with complete medium at a final concentration of 50 μM (1:1000 dilute of 50 mM). Likewise, a diluted β-E2 solution was prepared with complete medium at a final concentration of 10 nM (1:5000 dilute of 50 μM). […]

[2] = system: MCF-7 breast cancer cells; experiment: Cell death and cell growth in MCF-7 breast cancer cell cultures; format: cell-based; details: 5 nM E2; for cell growth / cell density (microscopic photograph): MCF-7 grown for 5 days, 25 μM androstene hormone, PEG 300 with 5% LIPOFECTAMINE
Description: as §1, §2, §3
A diluted β-AED (or β-AET) solution was prepared with complete medium at a final concentration of 50 μM (1:1000 dilute of 50 mM). Likewise, a diluted β-E2 solution was prepared with complete medium at a final concentration of 10 nM (1:5000 dilute of 50 μM).
Using a 24-well plate, mixtures of 0.5 mL of cells per well with 0.5 mL of medium diluted hormone vehicle. Cell cultures were maintained at 90% humidity, 7% CO2, and 37° C.

[3] = vehicle PEG 300 only, androstene hormone 25 μM

SMILES	mobile cells / cell processes (photograph) (293T cells; [3])	mobile cells / mobile elements / processes (photograph) (293T cells)	MDA-MB-231 Cell Death Amount [1]	MCF7 Cell Death Amount ([2]; 25 μM β-AED, 25 μM β-AET, PEG 300 with LIPOFECTAMINE vehicle)	cell growth / cell density (microscopic photograph) [2]	cell islands (photograph) (293T cells; [3])
C[C@]12CC[C@@H]3c4ccc(O)cc4CC[C@H]3[C@@H]1CC[C@@H]2O [E2, 17β-estradiol]	many more cell processes	many large islands with mobile processes, small islands with mobile process, and mobile cells forming interconnections with other elements	Not observed	Not observed	thick and similar to the cell growth of FIGS. 14 and 16	
C[C@]12CC[C@H]3[C@@H](CC=C4C[C@@H](O)CC[C@@]43C)[C@@H]1CC[C@@H]2O [β-AED, androst-5-ene-3β,17β-diol]	significant reduction in mobile cells	drastic decrease in, or morphological change, in mobile elements			areas of decreased density	larger
C[C@]12CC[C@H]3[C@@H]([C@@H](O)C=C4C[C@@H](O)CC[C@@]43C)[C@@H]1CC[C@@H]2O [β-AET, 5-androstene-3β,7β,17β-triol]					thick and similar to the cell growth of FIG. 14	
